Test results reported in US20170121683A1, “ARYL HYDROCARBON RECEPTOR DISRUPTION AND ENHANCEMENT” (priority 2015, published 2017).

What was measured:
[1] = test system: H9 hESC-derived non-adherent hematopoietic progenitor cells; assay: Hematopoietic colony forming unit (CFU) assay (Example 1); format: cell-based, human
Experimental: FIG. 5A. H9 hESCs were differentiated as spin EB exposed to Stage I mesodermal induction media for 6 days and transferred to hemato-endothelial induction media with either DMSO, 1 μM SR-1, or 10 nM TCDD treatment for an additional 6 days. On day 12 of total differentiation, 50,000 non-adherent cells were obtained in each treatment group and seeded in Methocult H4436. Following 14 days of growth, colony-forming units (CFUs) were quantified and scored based on morphology. Data are represented as number of CFUs per 5×10^4 cells. FIG. 5B. Distribution of CFU morphology for DMSO-, SR-1-, and TCDD-treated H9 hESCs. *p<0.05 as compared to DMSO-treated H9 hESC (Student's t-test) and represent an average of three biological replicates with error bars representing SEM. CFU-GEMM: Colony-Forming Unit Granulocyte/Erythrocyte/Macrophage/Megakaryocyte; CFU-M: Colony-Forming Unit Macrophage; CFU-GM: Colony-Forming Unit-Granulocyte/Macrophage; CFU-E: Colony-Forming Unit Erythroid; BFU-E: Burst-Forming Unit-Erythroid.
Non-adherent, differentiated hematopoietic progenitor cells were harvested following 6 days growth as spin-EBs in Stage I conditions, followed by an additional 6 days growth in Stage II conditions. […] Plates were incubated in a 37° C. in a humidified atmosphere containing 5% CO2 for 14 days and were subsequently scored.

[2] = test system: hESC-derived hematopoietic cells; assay: qRT-PCR of lymphoid-specific gene expression; format: cell-based, human; parameters: expression of TBX21/TBET, fold vs DMSO-treated control / expression of EOMES, fold vs DMSO-treated control: concentration or dose not given beside the values; settings: Day 11+28
Experimental: FIG. 13A. Schema of hESC differentiation into lymphoid cells as spin-embryoid bodies (spin-EBs). hESCs are made into spin-EBs at Day 0 and cultured in Stage 1 conditions with defined cytokines to promote mesoderm development for 11 days. At Day 11, spin-EBs are transferred onto OP9-DL1 in the presence of NK cell differentiation media (NKDM) to promote lymphoid differentiation. Cells are treated beginning at Day 11+0 with either 1 μM SR-1, 10 nM TCDD, or DMSO vehicle control with media exchanges and/or harvesting performed every week for up to 4 weeks. FIG. 13B. At Day 11, differentiated spin-EBs (photo) are phenotyped for CD34^+CD45^+ expression and transferred to OP9-DL1 stroma in NKDM. Non-adherent hematopoietic cells cultured either in the presence of DMSO, SR-1, or TCDD were assessed for developing NK cell immunophenotype based on CD56^+CD45^+ expression at Days 11+21, and 11+28; representative flow cytometry plots from one differentiation are shown. FIG. 13C. Quantification of fold-change in total percentage of CD56^+CD45^+ cells at both Day 11+21 and Day 11+28 when treated with DMSO, SR-1, or TCDD. SR-1 and TCDD treatments for each differentiation are normalized to DMSO controls. n=3 independent differentiation experiments, error bars represent SEM, *p<0.05 as assessed with two-way ANOVA+Tukey-Kramer multiple comparisons post-hoc test. FIG. 13D. Non-adherent hematopoietic progenitor cells derived from hESCs differentiated in the presence of SR-1, TCDD, or DMSO controls were harvested at Day 11+28 and probed for gene expression by quantitative real-time PCR (qRT-PCR). For each gene, Ct values were normalized to GAPDH at each time point and data is presented as relative fold-change to DMSO treated controls. n=3, error bars represent SEM, *p<0.05, #p<0.01 using student's t-test. FIG. 13E. Non-adherent hematopoietic progenitor cells derived from hESCs differentiated in the presence of SR-1, TCDD, or DMSO controls were harvested at Day 11+28 and assessed for CD107a expression following 4 hours of co-culture with K562 target cells at 2:1 effector:target ratio. SSC: side scatter. Representative flow cytometry plots are shown from one experiment. FIG. 13F. Quantification of percentage of CD107a^+ cells when treated with DMSO, SR-1, or TCDD at Day 11+28, n=2-3 replicates.
Spin-EBs were generated as described above (see also Knorr et al. Stem Cells Dev. 2013; 22(13):1861-9; Ni et al. Embryonic Stem Cell Immunobiol. Methods Protoc. Methods Mol. Biol. 2013; 1029:33-41; Hermanson et al. Stem Cells. 2016; 34(1):93-101). Following 11 days of mesoderm conditioning (Day 11), spin-EBs were collected and analyzed by flow cytometry to assess hematopoietic progenitor cell potential (see flow cytometry methods for antibodies used) (FIG. 4A). Spin-EBs yielding >30% CD34^+CD45^+ cells were transferred onto 24-well plates coated with irradiated OP9-DL1 cells (as described in Martin et al. Blood. 2008; 112(7):2730-7; La Motte-Mohs et al. Blood. 2005; 105(4):1431-9) (now defined as Day 11+0). EBs and OP9-DL1 were co-cultured in NK differentiation media (NKDM) supplemented initially with SCF, IL-15, IL-7, Flt3-L (all R&D Systems), and IL-3 (PeproTech) for one week; DMSO, SR-1, or TCDD were also added at Day 11+0. Every week, a one-half media change with NKDM supplemented with SCF, IL-15, IL-7, Flt3-L, and drugs was performed. hESCs were differentiated for four additional weeks (Day 11+28) and non-adherent cells were harvested for analysis. […]

non-human primate iPSCs = settings: Gori et al. Blood 2012; cited from earlier work

SMILES | increase in total number of colonies relative to DMSO-treated control cells ([1]; non-adherent cells harvested at Day 12, 1 μM SR-1) [fold] | proportion of CFU-M and CFU-GM ([1]; non-adherent cells harvested at Day 12, 1 μM SR-1, relative to DMSO) | expression of EOMES, fold vs DMSO-treated control [2] [fold] | expression of ID2, fold vs DMSO-treated control [2] [fold] | expression of TBX21/TBET, fold vs DMSO-treated control [2] [fold] | kinetics or quantity of CD34+ or CD34+CD31+ cells (non-human primate iPSCs) | phenotypic CD34+CD45+ cells (non-human primate iPSCs) | total number of colony-forming units (CFUs) (non-human primate iPSCs)
CC(C)n1cnc2c(NCCc3ccc(O)cc3)nc(-c3csc4ccccc34)nc21 [SR-1, StemReginin-1] | 4 | increased proportion | 5.12±0.52 | 2.49±0.003 | 3.44±0.55 | no differences | increase | did not enhance
Clc1cc2c(cc1Cl)Oc1cc(Cl)c(Cl)cc1O2 [TCDD, 2,3,7,8-tetrachlorodibenzo-p-dioxin] | – | – | 1.84±0.11 | – | 1.56±0.07 | – | – | –
